In patent publication US9889094B2, “Particle size reduction of an antimuscarinic compound” (CHIESI FARMACEUTICI S.p.A., priority 2013, dated 2018):
Where two headings read alike, the source gives them in different places.

What was measured:
[1] = Specific surface area by BET nitrogen adsorption; assay type: physicochemical; settings: Example 1 powder; for BET SSA: storage 22±2° C., 60% relative humidity
Method: Advantageously, the specific surface area of the obtained particles upon drying and sieving, is from to 8 m^2/g, advantageously from to 7 m^2/g, preferably from 3 to 6 m^2/g. The Specific Surface Area is determined by Brunauer-Emmett-Teller (BET) nitrogen adsorption method according to a procedure known in the art.
Alternatively, the physical stability may be measured using the specific surface area of the drug particles analysed by adsorption analysis, BET surface measurement, according to a method known to the skilled person.
Specific surface area (SSA) of the dried and sieved particles, analyzed by BET nitrogen adsorption method, was determined to be of about 4.3 m^2/g.

[2] = Crystallinity / polymorphic form by X-ray powder diffraction and DSC; assay type: physicochemical; settings: for XRD: Example 1 powder, storage 22±2° C., 60% relative humidity
[3] = Scanning Electron Microscopy (SEM) of particles; assay type: physicochemical; settings: after the homogenization step, Example 1 (2H,3H-decafluoropentane); platelet-like particles
[4] = Crystallinity / polymorphic form by DVS; assay type: physicochemical; settings: Example 4 final product (dichloromethane) compared to the initial coarse drug
[5] = Drying and re-dispersion after wet bead milling in acetone (comparative example); assay type: physicochemical; settings: wet bead milled in acetone, 200 rpm, 60 minutes; dried at 25° C. under low vacuum; white to off-white solid cake
Method: The vessel was sealed and the suspension homogenized into the planetary mill apparatus disclosed in WO 2007/020407, which is incorporated herein by reference in its entirety, at a disc speed of 200 rpm for 60 minutes at ambient temperature and pressure. After 60 minutes, the resulting drug suspension is separated from the milling media by filtering through a nylon mesh and the resulting drug suspension loaded into a drying tray.

[6] = Example 1 powder (2H,3H-decafluoropentane), storage 22±2° C., 60% relative humidity, time 0
[7] = Example 1 powder, storage 22±2° C., 60% relative humidity, 1 W
[8] = Example 1 powder, storage 22±2° C., 60% relative humidity, 2 W
[9] = Example 1 powder, storage 22±2° C., 60% relative humidity, 3 M
[10] = Example 1 powder, storage 22±2° C., 60% relative humidity, 4 W
[11] = Example 4 powder (dichloromethane), time 0
[12] = Example 5 powder (perfluoroheptane isomer mixture), 45 minutes processing, time 0

In the case of C[N+]1(C)CCC(OC(=O)C(O)(c2ccccc2)C2CCCC2)C1 (racemic) [rac-glycopyrronium bromide, (3S,2′R), (3R,2′S)-3-[(cyclopentylhydroxyphenylacetyl)oxy]-1,1-dimethylpyrrolidinium bromide], the “Specific surface area (SSA)” value ([1]; dried and sieved particles) is reported as “about 4.3 m^2/g”, the “BET SSA” value ([1]; 1 W) is reported as 4.198 m^2/g and the “BET SSA” value ([1]; 2 W) is reported as 4.210 m^2/g. For the same compound, the “BET SSA” value ([1]; 3 M) was 4.00 m^2/g, the “BET SSA” value ([1]; 4 W) was 4.086 m^2/g and the “BET SSA” value ([1]; time 0) was 4.326 m^2/g. The “change in degree of crystallinity or polymorphic form (XPRD and DSC)” value ([2]; Example 1 final product compared to the initial coarse drug) was “no change in degree of crystallinity or polymorphic form”, the XRD ([2]; 4 W) was “Crystalline” and the XRD ([2]; time 0) was “Crystalline”. For the same compound, the “average particle size by SEM” value [3] was “below 5 μm”, the “change in degree of crystallinity or polymorphic form (DVS)” value [4] was “no change in degree of crystallinity or polymorphic form” and the “re-dispersibility of dried product” value [5] was “could not be re-dispersed under mechanical agitation”. For the same compound, the “PSD d(v0.1)” value [6] was 0.71, the “PSD d(v0.5)” value [6] was 1.85 and the “PSD d(v0.9)” value [6] was 4.77. The “d(v0.5)” value (Example 1 powder after micronization and drying (2H,3H-decafluoropentane)) was 1.85 μm, the “change of particle size upon storage” value (Example 1 powder, storage 22±2° C., 60% relative humidity, up to 3 months) was “does not significantly change” and the “PSD d(v0.1)” value [7] was 0.72. For the same compound, the “PSD d(v0.5)” value [7] was 1.92, the “PSD d(v0.9)” value [7] was 5.03 and the “PSD d(v0.1)” value [8] was 0.72. For the same compound, the “PSD d(v0.5)” value [8] was 1.88, the “PSD d(v0.9)” value [8] was 4.95 and the “PSD d(v0.1)” value [9] was 0.75. The “PSD d(v0.5)” value [9] was 2.07, the “PSD d(v0.9)” value [9] was 5.26 and the “PSD d(v0.1)” value [10] was 0.72. The “PSD d(v0.5)” value [10] was 1.93, the “PSD d(v0.9)” value [10] was 4.97 and the “PSD d(v0.1)” value [11] was 0.80. For the same compound, the “PSD d(v0.5)” value [11] was 2.06, the “PSD d(v0.9)” value [11] was 6.46 and the “d(v0.5)” value (Example 4 powder after micronization and drying (dichloromethane)) was 2.06 μm. For the same compound, the “PSD d(v0.1)” value [12] was 0.66, the “PSD d(v0.5)” value [12] was 1.70 and the “PSD d(v0.9)” value [12] was 4.31.
